Data on one substance can be found in patent US20060094003A1, “Acetylcholine-dependent current as a novel ionic target for atrial fibrillation” (priority 2004, published 2006).

Bounds are passed on as bounds.

What is called IC50 is the midpoint of a concentration-inhibition curve.

In one data set the target is IKATP (Homo sapiens, UniProt Q14654). The conditions noted are these: at concentrations of 8 to 30 nM; cited from earlier work.
For the next data set, the system named is IKH. As to the kind of experiment: Patch-clamp of TQ-sensitive IKH component in LA cardiomyocytes of control and AT dogs. The settings on record: at −110 mV. Format: cell-based, canine. The protocol:
(§1) Briefly, dogs were subjected to 7-13 days of AT at about 400 beats per minute (bpm). LA preparations were then coronary-perfused and studied intact in vitro or subjected to cardiomyocyte isolation. IKH was studied with patch clamp.
(§2) Adult dogs were divided into control and AT groups. AT dogs were initially anesthetized with diazepam (0.25 mg/kg IV), ketamine (5.0 mg/kg IV), and halothane (1% to 2%) for transvenous insertion of right ventricular (RV) and right atrial (RA) unipolar pacing leads connected to ventricular and atrial pacemakers implanted in the neck. Pacing began 24 hours after pacemaker implantation. AV block was created by radiofrequency catheter ablation and the RV demand-pacemaker was programmed to 80 bpm. The RA was then tachypaced (400 bpm) for 7-13 days.
On study days, dogs were anesthetized with pentobarbital (30 mg·kg^−1 I.V.) and artificially ventilated. Hearts and adjacent lung tissue were excised via a left thoracotomy and immersed in oxygenated Tyrode solution. […]
For single cardiomyocytes, currents were recorded with whole-cell patch-clamp at 36±0.5° C. […] To control for cell-size variability, currents are expressed as densities (pA/pF). […]

The next data set concerns the target IKr (Homo sapiens, UniProt Q12809). The conditions noted are these: at concentrations of 8 to 30 nM; cited from earlier work.
A further data set concerns AT-remodeled canine LA. As to the kind of experiment: Action potential duration in AT-remodeled canine LA preparations. The conditions noted are these: for effect on action potential duration (in words): AT-remodeled canine LA. The protocol: as §2
(§3) On study days, dogs were anesthetized with pentobarbital (30 mg·kg^−1 I.V.) and artificially ventilated. Hearts and adjacent lung tissue were excised via a left thoracotomy and immersed in oxygenated Tyrode solution. For cell isolation, the proximal circumflex coronary artery was cannulated and distal ends of PV myocardial sleeves were marked with silk thread prior to enzyme perfusion with collagenase (100 U mL^−1, Worthington, type II), to facilitate identification after enzymatic digestion. PVs were well-perfused and single cardiomyocytes were isolated from all PVs. After isolation, cells were stored at 4° C. and studied within 12 hours.
(§4) For standard-microelectrode experiments and atrial-tachyarrhythmia induction, intact tissue preparations including the LA and adjacent PVs were mounted in a Plexiglas chamber and perfused via the left circumflex coronary artery with oxygenated Kreb's solution at 36±0.5° C. Fine-tipped microelectrodes (resistance 15-20 MΩ when filled with 3-mol/L KCL) coupled to a high-input impedance amplifier were used to record Action Potentials.
Table 1 quantifies this increase in duration by presenting the time required for action potentials in 8 dogs to reach 90%, 50% and 25% repolarization. Results are averages over 24 and 23 action potentials respectively for the pre-TQ data and the post-TQ data.

Data set [1] concerns AT-remodeled canine left atrial (LA) preparations. In words: Atrial tachyarrhythmia induction in AT-remodeled coronary-perfused LA preparations in vitro. The protocol: as §1, §2, §3, §4
For atrial tachyarrhythmia induction, single S2-extrastimuli following 15 S1-stimuli at basic cycle lengths (CLs) of 150-400 ms with a 5-second pause to observe the response were used. All stimuli were twice-threshold, 2-ms pulses.

Another data set deals with T1, Kir1 channels (Homo sapiens, UniProt P48048).
T1 sequence (P48048 1-391): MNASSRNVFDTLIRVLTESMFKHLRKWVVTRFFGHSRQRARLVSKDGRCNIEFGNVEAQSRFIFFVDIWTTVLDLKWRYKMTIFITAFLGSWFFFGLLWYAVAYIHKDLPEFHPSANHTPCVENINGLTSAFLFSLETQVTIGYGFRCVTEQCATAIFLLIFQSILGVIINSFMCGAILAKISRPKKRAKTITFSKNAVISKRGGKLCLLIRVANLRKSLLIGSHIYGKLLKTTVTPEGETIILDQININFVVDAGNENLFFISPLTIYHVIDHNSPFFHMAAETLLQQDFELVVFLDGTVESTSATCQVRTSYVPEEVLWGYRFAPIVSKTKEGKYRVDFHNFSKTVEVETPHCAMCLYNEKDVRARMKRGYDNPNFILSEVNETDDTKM
The conditions noted are these: Jin & Lu, 1999; cited from earlier work.

IKATP, sequence (Q14654 whole entry, species assumed): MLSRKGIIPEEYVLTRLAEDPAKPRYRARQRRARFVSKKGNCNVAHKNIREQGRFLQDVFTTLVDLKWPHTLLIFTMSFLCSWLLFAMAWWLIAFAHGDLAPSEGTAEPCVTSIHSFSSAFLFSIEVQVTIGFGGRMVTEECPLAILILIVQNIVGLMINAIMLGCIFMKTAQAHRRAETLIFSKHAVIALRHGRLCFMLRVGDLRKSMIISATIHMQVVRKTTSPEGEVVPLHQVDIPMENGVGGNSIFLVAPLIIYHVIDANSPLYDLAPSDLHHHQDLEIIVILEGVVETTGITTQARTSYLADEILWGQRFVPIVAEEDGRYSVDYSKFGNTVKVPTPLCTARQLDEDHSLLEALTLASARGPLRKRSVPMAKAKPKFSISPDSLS
IKATP, sequence (O60706 whole entry partner, species assumed): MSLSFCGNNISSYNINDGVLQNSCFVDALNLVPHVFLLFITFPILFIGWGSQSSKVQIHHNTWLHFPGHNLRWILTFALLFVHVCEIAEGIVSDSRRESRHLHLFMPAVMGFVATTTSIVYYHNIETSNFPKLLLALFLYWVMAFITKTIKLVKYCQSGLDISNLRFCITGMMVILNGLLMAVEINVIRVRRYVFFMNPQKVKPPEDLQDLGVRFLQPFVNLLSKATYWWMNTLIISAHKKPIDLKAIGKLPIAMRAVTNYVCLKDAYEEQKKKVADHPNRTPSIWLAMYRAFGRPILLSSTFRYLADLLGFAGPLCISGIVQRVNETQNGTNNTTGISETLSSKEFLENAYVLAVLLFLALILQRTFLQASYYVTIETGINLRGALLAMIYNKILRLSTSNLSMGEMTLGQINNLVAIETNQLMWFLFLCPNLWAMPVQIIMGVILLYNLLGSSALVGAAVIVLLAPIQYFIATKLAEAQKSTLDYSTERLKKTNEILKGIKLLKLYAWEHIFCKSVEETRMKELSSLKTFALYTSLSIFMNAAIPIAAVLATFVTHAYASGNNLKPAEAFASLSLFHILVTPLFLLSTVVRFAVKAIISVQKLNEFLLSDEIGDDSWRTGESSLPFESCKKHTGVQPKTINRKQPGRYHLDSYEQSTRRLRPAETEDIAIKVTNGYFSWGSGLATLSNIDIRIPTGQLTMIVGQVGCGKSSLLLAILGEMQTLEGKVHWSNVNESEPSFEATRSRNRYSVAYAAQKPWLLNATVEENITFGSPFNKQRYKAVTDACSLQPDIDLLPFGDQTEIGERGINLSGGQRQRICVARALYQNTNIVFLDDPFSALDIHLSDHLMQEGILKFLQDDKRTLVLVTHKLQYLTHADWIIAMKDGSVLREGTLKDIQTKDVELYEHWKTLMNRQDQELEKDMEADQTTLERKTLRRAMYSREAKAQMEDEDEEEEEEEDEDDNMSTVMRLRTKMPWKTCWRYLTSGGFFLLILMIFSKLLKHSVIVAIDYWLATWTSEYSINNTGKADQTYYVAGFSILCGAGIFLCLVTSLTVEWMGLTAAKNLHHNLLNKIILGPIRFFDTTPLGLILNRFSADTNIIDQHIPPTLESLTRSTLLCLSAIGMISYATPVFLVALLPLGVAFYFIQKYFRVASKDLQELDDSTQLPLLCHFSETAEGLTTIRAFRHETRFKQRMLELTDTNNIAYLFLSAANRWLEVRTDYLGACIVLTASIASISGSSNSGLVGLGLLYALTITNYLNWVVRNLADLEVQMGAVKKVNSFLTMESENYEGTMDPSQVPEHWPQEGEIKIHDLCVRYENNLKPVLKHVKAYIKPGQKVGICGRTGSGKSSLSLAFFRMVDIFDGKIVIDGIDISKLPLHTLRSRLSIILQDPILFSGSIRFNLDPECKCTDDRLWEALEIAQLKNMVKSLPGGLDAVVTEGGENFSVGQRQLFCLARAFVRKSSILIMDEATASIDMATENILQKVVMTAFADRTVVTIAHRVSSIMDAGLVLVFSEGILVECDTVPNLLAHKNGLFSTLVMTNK
IKr, sequence (Q12809 whole entry): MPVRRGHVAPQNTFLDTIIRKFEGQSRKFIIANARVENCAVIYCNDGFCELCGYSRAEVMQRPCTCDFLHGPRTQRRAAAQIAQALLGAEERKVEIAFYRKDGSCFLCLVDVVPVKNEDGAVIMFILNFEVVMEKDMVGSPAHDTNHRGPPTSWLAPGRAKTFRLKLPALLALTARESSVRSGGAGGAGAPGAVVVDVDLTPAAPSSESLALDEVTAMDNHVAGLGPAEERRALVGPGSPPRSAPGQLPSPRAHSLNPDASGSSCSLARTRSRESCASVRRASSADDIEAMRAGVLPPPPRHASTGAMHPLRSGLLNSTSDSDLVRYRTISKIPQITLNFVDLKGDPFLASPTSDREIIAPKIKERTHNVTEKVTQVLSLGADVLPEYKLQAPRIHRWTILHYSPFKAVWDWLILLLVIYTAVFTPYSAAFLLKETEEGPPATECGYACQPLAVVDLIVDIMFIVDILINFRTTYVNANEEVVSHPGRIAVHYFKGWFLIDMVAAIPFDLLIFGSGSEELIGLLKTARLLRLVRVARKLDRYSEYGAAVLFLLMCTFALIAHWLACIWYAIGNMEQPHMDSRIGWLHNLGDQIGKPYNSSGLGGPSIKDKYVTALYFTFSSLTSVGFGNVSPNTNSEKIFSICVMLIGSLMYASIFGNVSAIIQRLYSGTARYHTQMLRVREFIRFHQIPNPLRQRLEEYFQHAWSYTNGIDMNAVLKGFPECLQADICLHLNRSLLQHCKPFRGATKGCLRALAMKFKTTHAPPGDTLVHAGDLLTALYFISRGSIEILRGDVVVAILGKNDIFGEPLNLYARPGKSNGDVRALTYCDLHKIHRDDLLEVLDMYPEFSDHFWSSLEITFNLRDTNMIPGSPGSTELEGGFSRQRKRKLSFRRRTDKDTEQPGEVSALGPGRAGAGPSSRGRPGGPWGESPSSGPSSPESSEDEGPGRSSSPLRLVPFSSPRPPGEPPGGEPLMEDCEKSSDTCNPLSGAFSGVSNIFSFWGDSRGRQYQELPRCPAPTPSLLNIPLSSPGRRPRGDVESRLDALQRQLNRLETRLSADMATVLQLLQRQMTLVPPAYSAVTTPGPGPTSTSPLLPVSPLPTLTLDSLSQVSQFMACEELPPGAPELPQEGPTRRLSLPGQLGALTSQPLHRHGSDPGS

In the case of tertiapin-Q, at IKATP, the “effect on IKATP (in words)” value is “no effect”. In addition, the “100 nM TQ-sensitive component of IKH” value in the data set on IKH (AT dogs) is reported as −2.8±0.5 pA/pF; in the data set with IKH (control dogs), −1.7±0.5 pA/pF. Moreover, the “effect on IKr (in words)” value at IKr is “no effect”. This substance yielded an APD25 with AT-remodeled canine LA (2 Hz, AT-remodeled preparations, post-TQ, pre-TQ 15.9 ± 1.7) of 39.0 ± 2.5 ms. Moreover, in the data set with AT-remodeled canine LA (2 Hz, AT-remodeled preparations, post-TQ, pre-TQ 44.4 ± 2.3), the APD50 was 87.4 ± 2.7 ms. In addition, the APD90 in the data set on AT-remodeled canine LA (2 Hz, AT-remodeled preparations, post-TQ, pre-TQ 100.1 ± 2.6) stood at 162.2 ± 4.2 ms. Also, the figures for the “effect on action potential duration (in words)” value in the data set on AT-remodeled canine LA and with AT-remodeled canine LA (listed as TQ) were “greatly increases” and “prominently increased”, respectively. The same substance had a tachyarrhythmia cycle length in data set [1] (100 nM TQ, without TQ 108±0.3 ms) of 179 ± 0.8 ms. Moreover, the mean tachyarrhythmia duration in data set [1] (100 nM TQ, without TQ 11602±604 ms) was determined as 520 ± 6 ms. The “time to termination of arrhythmia after TQ administration” value in data set [1] (2 cases of tachyarrhythmia lasting uninterrupted for more than 20 minutes) is ≤ 4 min. Further, the IC50 on Kir1 channels was 2 nM.
